PMC12304826, “Redirecting the Peptide Cleavage Causes Protease Inactivation” (Angewandte Chemie (International Ed. in English), 2025)

Target: T1, human cathepsin K (Homo sapiens, UniProt P43235)
T1 construct: purchased Enzo Life Sciences, Lörrach, Germany
T1 sequence (P43235 115-329): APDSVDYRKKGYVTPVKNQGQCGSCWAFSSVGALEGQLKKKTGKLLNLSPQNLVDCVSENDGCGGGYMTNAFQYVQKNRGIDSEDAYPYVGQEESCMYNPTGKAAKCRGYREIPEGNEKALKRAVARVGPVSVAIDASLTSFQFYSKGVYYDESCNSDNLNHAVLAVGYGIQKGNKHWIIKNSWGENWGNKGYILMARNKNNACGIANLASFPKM
Experiment: Cathepsin K inhibition assay (Cbz-Leu-Arg-AMC)
Type: biochemical
Conditions: 20 µM inhibitor, 60 min; read-out: Residual activity @ 20 µM (%) Cat K
Method: 1. Enzyme Inhibition Assays and Kinetic Data of Inhibition of Cathepsins B, L, K and S General. Human cathepsins were assayed either fluorimetrically or spectrophotometrically as noted below. The 10 mM inhibitor solutions were prepared in DMSO. The final concentration of DMSO in all assays was 2%. Non-linear regressions were conducted with GraFit 5. Residual cathepsin activity at an inhibitor concentration of 20 µM was determined from duplicate measurements based on the product formation after 60 min. Concentration dependent measurements were performed in duplicate measurements with five different inhibitor concentrations when the residual cathepsin activity in the presence of 20 µM inhibitor was below 70% (cathepsin B) or below 50% (cathepsins cathepsins L, K, and S). Progress curves were monitored for 60 min. First-order rate constants, kobs, were determined by non-linear regression following the equation [P] = vi × (1 – exp(-kobs × t))/kobs + d, where [P] is the product concentration, vi is the initial product formation rate, kobs is the observed first-order rate constant, and d is the offset. Mean values of kobs were plotted versus corresponding inhibitor concentrations [I], and second-order rate constants of inactivation, kinac/Ki, were obtained by linear regression. The equation kobs/[I] = (kinac/Ki)/(1 + [S]/Km) was used, where [S] is the substrate concentration and Km is the Michaelis-Menten constant. Standard errors (SE) refer to the linear regression. […] Cathepsin K inhibition assay.[1] Human recombinant cathepsin K (Enzo Life Sciences, Lörrach, Germany) was assayed fluorimetrically on a Monaco Safas spectrofluorometer flx or a Fluostar OPTIMA plate reader (BMG Labtech, Ortenberg, Germany). The wavelength for excitation was 360 nm and for emission 440 nm. The reactions were followed at 25 °C. A human cathepsin K stock solution of 23 µg/mL in 50 mM sodium acetate pH 5.5, 50 mM NaCl, 0.5 mM EDTA, 5 mM DTT was diluted 1:100 with assay buffer (100 mM sodium citrate pH 5.0, 100 mM NaCl, 1 mM EDTA, 0.01% CHAPS) containing 5 mM DTT and incubated for 30 min at 37 °C. A 10 mM stock solution of the 7-amino-4-methyl-coumarin (AMC)-based fluorogenic substrate Cbz-Leu-Arg-AMC was prepared in DMSO. The final concentration of the substrate was 40 μM (= 13.3 Km). When using the spectrofluorometer, into a cuvette containing 960 μL assay buffer, inhibitor solution and DMSO in a total volume of 16 μL, and 4 μL of the substrate solution were added and mixed. The reaction was initiated by adding 20 µL of the cathepsin K solution. When using the plate reader, into a well containing 192 µL assay buffer, inhibitor solution and DMSO in a total volume of 3.2 µL and 0.8 µL of the substrate solution were added and mixed. The reaction was initiated by adding 4 µL of the cathepsin K solution.
Cathepsin S inhibition assay.[2] […]
DTT, 0.5% Triton X-100 and 30% glycerol was diluted 1:100 with a 50 mM sodium phosphate buffer pH 6.5, 50 mM NaCl, 2 mM EDTA, 0.01% Triton X-100 and 5 mM DTT and incubated for 60 min at 37 °C. A 10 mM stock solution of the fluorogenic substrate Cbz-Phe-Arg-AMC was prepared in DMSO.
The assay was performed with a final substrate concentration of 40 µM (= 0.74 Km). When using the spectrofluorometer, into a cuvette containing 920 μL assay buffer, inhibitor solution and DMSO in a total volume of 16 μL, and 4 μL of the substrate solution were added and mixed. The reaction was initiated by adding 60 μL of the cathepsin S solution. When using the plate reader, into a well containing 188 µL assay buffer, inhibitor solution and DMSO in a total volume of 3.2 µL and 0.8 µL of the substrate solution were added and mixed. The reaction was initiated by adding […] of the cathepsin S solution.

Compound `CC(C)CC(C(=O)NC(Cc1ccccc1)C(=O)O)N(C)C(=O)Oc1ccc(Cl)cc1` (stereo not shown) [Compound 14] has a remaining activity at 20 µM of 76%.
